From ChEMBL document CHEMBL1833857, “Histone deacetylase activators: N-acetylthioureas serve as highly potent and isozyme selective activators for human histone deacetylase-8 on a fluorescent substrate” (Bioorg Med Chem Lett, 2011)
Activity calls are given as the source filed them. No cut-off for these calls is given here.

Tests used:
[1] = target: T1, Histone deacetylase 8 (Homo sapiens) (UniProt Q9BY41); assay: Activation of recombinant human HDAC8 assessed as increase in ratio of Kcat to Km using Fluor-de-Lys as substrate by spectrofluorometry relative to control
T1 sequence (whole entry): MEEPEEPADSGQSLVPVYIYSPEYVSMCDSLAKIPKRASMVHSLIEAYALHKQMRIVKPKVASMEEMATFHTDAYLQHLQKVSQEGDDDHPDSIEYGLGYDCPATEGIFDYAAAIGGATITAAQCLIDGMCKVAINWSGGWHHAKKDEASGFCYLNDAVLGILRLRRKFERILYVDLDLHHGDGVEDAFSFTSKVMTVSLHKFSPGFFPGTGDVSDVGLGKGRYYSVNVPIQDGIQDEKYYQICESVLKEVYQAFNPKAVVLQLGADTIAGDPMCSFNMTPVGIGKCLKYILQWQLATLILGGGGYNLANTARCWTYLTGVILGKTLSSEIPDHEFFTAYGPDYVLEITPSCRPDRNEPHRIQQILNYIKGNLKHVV

[2] = target: T1, Histone deacetylase 8 (Homo sapiens); assay: Activation of recombinant human HDAC8 assessed as decrease in Km using Fluor-de-Lys as substrate by spectrofluorometry
[3] = target: Histone deacetylase 4 (Homo sapiens) (UniProt P56524); assay: Activation of HDAC4 using trifluoroacetyl-lysine containing fluorogenic substrate at 10 uM by spectrofluorometry
[4] = target: T2, Polyamine deacetylase HDAC10 (Homo sapiens) (UniProt Q969S8); assay: Inhibition of HDAC10 using Fluor-de-Lys as substrate at 100 uM by spectrofluorometry
T2 sequence (whole entry): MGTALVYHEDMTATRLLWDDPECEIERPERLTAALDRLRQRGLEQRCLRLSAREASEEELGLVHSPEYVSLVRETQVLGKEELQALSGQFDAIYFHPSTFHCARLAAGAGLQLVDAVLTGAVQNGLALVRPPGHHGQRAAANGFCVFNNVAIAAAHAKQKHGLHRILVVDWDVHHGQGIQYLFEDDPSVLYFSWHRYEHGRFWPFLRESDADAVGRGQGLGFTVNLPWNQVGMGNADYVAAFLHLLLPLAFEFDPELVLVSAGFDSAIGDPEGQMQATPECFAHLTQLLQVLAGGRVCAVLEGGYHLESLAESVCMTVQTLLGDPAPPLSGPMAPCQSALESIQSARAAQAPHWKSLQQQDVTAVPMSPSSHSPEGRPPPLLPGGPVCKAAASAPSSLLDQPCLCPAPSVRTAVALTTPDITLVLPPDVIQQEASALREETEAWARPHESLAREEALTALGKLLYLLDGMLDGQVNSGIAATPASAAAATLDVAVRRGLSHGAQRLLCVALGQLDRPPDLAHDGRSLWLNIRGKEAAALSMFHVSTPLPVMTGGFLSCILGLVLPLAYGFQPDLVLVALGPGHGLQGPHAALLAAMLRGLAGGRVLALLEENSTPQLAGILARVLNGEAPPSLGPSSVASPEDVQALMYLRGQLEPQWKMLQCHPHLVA

[5] = target: T3, Protein deacetylase HDAC6 (Homo sapiens) (UniProt Q9UBN7); assay: Inhibition of HDAC6 using Fluor-de-Lys as substrate at 100 uM by spectrofluorometry
T3 sequence (whole entry): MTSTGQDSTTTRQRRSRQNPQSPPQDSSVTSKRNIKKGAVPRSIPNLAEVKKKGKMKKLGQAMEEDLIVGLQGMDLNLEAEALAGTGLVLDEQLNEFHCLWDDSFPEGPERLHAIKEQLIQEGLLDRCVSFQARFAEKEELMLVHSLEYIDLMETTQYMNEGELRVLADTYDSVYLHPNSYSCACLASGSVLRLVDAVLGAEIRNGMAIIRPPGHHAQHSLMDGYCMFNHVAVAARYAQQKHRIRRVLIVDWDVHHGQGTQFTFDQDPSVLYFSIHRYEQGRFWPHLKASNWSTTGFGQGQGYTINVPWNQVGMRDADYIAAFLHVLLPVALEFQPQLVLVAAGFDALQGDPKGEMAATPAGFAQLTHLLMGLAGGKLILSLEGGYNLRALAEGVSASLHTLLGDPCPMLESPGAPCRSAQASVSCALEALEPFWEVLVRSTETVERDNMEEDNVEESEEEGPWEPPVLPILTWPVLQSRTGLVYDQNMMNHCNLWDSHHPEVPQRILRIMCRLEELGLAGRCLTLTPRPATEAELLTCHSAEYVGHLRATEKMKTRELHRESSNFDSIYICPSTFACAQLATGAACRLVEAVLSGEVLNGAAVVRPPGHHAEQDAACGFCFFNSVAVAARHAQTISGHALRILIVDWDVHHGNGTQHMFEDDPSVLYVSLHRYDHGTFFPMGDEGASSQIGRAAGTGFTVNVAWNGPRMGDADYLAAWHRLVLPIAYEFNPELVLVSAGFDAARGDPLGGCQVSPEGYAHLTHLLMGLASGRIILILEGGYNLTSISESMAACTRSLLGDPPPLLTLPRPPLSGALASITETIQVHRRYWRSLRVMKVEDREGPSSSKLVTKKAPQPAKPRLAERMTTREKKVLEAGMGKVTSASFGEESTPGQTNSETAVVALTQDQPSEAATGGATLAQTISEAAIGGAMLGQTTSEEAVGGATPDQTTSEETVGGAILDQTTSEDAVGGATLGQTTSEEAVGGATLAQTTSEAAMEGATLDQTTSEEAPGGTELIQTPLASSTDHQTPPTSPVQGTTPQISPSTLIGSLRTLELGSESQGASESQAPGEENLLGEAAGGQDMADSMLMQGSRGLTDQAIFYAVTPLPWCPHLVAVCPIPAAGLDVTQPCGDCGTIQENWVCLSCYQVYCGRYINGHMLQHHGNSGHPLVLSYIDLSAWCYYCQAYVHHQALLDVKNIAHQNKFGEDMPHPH

[6] = target: T1, Histone deacetylase 8 (Homo sapiens); assay: Activation of recombinant human HDAC8 using Fluor-de-Lys as substrate by spectrofluorometry
[7] = target: T1, Histone deacetylase 8 (Homo sapiens); assay: Activation of recombinant human HDAC8 assessed as increase in Kcat using Fluor-de-Lys as substrate by spectrofluorometry relative to control
[8] = target: T4, Histone deacetylase 11 (Homo sapiens) (UniProt Q96DB2); assay: Inhibition of HDAC11 using Fluor-de-Lys as substrate at 100 uM by spectrofluorometry
T4 sequence (whole entry): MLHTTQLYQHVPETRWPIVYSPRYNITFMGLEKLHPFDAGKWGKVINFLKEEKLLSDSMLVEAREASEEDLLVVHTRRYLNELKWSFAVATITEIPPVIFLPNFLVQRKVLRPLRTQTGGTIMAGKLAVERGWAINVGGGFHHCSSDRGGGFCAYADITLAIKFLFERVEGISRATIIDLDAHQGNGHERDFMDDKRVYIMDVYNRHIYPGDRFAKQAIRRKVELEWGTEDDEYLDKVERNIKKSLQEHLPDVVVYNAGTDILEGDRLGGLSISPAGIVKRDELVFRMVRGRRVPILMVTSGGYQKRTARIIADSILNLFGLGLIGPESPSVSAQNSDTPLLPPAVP

[9] = target: Histone deacetylase 4 (Homo sapiens) (UniProt P56524); assay: Activation of HDAC4 using trifluoroacetyl-lysine containing fluorogenic substrate at 100 uM by spectrofluorometry
[10] = target: Histone deacetylase 2 (Homo sapiens) (UniProt Q92769); assay: Inhibition of HDAC2 using Fluor-de-Lys as substrate at 100 uM by spectrofluorometry
[11] = target: Histone deacetylase 4 (Homo sapiens) (UniProt P56524); assay: Inhibition of HDAC4 using trifluoroacetyl-lysine containing fluorogenic substrate at 100 uM by spectrofluorometry
[12] = target: T1, Histone deacetylase 8 (Homo sapiens); assay: Maximum activation of recombinant human HDAC8 using Fluor-de-Lys as substrate by spectrofluorometry relative to control
[13] = target: Histone deacetylase 3 (Homo sapiens) (UniProt O15379); assay: Inhibition of HDAC3 using Fluor-de-Lys as substrate at 100 uM by spectrofluorometry
[14] = target: T1, Histone deacetylase 8 (Homo sapiens); assay: Activation of recombinant human HDAC8 assessed as ratio of the initial rate of reaction in the absence and presence of compound using Fluor-de-Lys as substrate at 10 uM by spectrofluorometry
[15] = target: Histone deacetylase 1 (Homo sapiens) (UniProt Q13547); assay: Inhibition of HDAC1 using Fluor-de-Lys as substrate at 100 uM by spectrofluorometry
[16] = Solubility of the compound at 100 uM; type: physicochemical
[17] = target: T4, Histone deacetylase 11 (Homo sapiens); assay: Activation of HDAC11 using Fluor-de-Lys as substrate at 100 uM by spectrofluorometry
[18] = target: Histone deacetylase 1 (Homo sapiens) (UniProt Q13547); assay: Activation of HDAC1 using Fluor-de-Lys as substrate at 10 uM by spectrofluorometry
[19] = target: T2, Polyamine deacetylase HDAC10 (Homo sapiens); assay: Activation of HDAC10 using Fluor-de-Lys as substrate at 100 uM by spectrofluorometry
[20] = target: Histone deacetylase 1 (Homo sapiens) (UniProt Q13547); assay: Activation of HDAC1 using Fluor-de-Lys as substrate at 100 uM by spectrofluorometry
[21] = target: T4, Histone deacetylase 11 (Homo sapiens); assay: Activation of HDAC11 using Fluor-de-Lys as substrate at 10 uM by spectrofluorometry
[22] = target: T3, Protein deacetylase HDAC6 (Homo sapiens); assay: Activation of HDAC6 using Fluor-de-Lys as substrate at 100 uM by spectrofluorometry
[23] = target: T2, Polyamine deacetylase HDAC10 (Homo sapiens); assay: Activation of HDAC10 using Fluor-de-Lys as substrate at 10 uM by spectrofluorometry
[24] = target: T3, Protein deacetylase HDAC6 (Homo sapiens); assay: Activation of HDAC6 using Fluor-de-Lys as substrate at 10 uM by spectrofluorometry
[25] = target: Histone deacetylase 2 (Homo sapiens) (UniProt Q92769); assay: Activation of HDAC2 using Fluor-de-Lys as substrate at 100 uM by spectrofluorometry
[26] = target: Histone deacetylase 2 (Homo sapiens) (UniProt Q92769); assay: Activation of HDAC2 using Fluor-de-Lys as substrate at 10 uM by spectrofluorometry
[27] = target: Histone deacetylase 3 (Homo sapiens) (UniProt O15379); assay: Activation of HDAC3 using Fluor-de-Lys as substrate at 100 uM by spectrofluorometry
[28] = target: Histone deacetylase 3 (Homo sapiens) (UniProt O15379); assay: Activation of HDAC3 using Fluor-de-Lys as substrate at 10 uM by spectrofluorometry

Histone deacetylase 3 (Homo sapiens), sequence (O15379 whole entry): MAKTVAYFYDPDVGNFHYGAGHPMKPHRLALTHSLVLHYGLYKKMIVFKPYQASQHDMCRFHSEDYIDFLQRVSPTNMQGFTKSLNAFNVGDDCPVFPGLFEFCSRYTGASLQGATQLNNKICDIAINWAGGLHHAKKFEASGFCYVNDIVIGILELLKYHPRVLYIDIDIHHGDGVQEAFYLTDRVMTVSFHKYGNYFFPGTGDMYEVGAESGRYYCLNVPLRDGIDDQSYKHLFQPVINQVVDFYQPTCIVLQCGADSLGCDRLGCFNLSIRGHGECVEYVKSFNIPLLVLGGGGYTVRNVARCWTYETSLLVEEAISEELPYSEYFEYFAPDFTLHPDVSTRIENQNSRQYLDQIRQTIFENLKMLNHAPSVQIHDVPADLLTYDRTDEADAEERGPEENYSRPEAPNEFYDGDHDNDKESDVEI
Histone deacetylase 2 (Homo sapiens), sequence (Q92769 whole entry): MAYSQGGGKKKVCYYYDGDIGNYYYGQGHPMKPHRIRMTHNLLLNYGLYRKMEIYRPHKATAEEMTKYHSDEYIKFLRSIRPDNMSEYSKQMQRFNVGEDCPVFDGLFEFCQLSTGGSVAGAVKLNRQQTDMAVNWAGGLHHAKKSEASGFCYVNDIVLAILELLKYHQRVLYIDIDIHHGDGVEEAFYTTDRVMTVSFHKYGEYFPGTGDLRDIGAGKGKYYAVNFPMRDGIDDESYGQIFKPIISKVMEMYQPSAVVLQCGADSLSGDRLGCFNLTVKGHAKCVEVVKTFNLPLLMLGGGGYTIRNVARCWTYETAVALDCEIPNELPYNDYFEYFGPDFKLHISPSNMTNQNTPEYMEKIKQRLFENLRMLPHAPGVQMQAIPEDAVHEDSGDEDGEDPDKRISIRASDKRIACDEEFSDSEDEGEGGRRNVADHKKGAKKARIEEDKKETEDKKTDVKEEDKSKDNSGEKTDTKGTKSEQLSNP
Histone deacetylase 4 (Homo sapiens), sequence (P56524 whole entry): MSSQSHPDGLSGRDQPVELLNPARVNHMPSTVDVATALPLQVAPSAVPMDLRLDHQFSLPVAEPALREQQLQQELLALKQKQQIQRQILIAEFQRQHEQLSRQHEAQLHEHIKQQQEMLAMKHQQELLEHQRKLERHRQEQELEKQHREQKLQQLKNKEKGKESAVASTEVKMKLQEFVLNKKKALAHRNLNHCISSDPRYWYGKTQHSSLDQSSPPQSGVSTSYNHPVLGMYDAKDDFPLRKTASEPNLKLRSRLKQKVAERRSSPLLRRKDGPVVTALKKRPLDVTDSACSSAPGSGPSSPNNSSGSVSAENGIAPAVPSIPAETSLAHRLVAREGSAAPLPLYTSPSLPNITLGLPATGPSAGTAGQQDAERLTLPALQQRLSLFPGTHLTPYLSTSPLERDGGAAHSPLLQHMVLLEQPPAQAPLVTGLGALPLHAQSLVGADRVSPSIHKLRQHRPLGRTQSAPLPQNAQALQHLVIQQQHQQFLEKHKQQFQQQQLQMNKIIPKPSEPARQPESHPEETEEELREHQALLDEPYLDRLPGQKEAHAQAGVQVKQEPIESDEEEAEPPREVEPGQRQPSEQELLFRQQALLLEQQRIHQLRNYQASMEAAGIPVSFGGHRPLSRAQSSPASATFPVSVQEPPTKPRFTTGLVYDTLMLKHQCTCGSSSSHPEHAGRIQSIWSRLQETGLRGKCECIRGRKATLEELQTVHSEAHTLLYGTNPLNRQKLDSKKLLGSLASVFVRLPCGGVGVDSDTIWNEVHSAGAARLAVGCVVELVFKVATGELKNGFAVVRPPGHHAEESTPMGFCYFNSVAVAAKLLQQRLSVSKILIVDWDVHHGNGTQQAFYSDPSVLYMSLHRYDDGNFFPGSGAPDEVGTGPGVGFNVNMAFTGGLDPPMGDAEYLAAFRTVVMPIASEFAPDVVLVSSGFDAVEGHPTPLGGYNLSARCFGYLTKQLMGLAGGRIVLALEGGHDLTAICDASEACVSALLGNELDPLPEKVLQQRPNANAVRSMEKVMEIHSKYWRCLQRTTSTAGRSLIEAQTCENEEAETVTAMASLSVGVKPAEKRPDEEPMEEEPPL
Histone deacetylase 1 (Homo sapiens), sequence (Q13547 whole entry): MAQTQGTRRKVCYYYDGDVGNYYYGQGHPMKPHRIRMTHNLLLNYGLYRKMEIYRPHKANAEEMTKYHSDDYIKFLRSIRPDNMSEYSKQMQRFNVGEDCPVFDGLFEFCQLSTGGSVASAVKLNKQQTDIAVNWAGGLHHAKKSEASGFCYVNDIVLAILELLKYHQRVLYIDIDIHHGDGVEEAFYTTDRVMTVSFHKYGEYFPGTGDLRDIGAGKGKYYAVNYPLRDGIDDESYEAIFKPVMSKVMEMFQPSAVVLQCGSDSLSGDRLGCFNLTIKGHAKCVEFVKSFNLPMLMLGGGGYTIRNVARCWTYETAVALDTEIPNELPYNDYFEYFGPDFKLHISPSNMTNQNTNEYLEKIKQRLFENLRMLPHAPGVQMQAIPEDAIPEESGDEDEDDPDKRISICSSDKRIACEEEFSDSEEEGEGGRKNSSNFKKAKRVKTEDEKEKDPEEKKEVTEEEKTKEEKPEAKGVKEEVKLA

Row | Activity [3] | inhibition [4] | inhibition [5] | inhibition [8] | Activity [9] | inhibition [10] | inhibition [11] | inhibition [13] | fold change (FC) [14] | inhibition [15] | Activity [17] | Activity [19] | Activity [21] | Activity [22] | Activity [23] | Activity [24] | Activity [25] | Activity [26] | Activity [27] | Activity [28] | Compound | also measured
1 | inactive | 15% | 30% | 14% | inactive | 8% | inactive | 6% | 12 | 8% |  |  |  |  |  |  |  |  |  |  | O=C(NC(=S)Nc1ccccc1)c1ccccc1 | fold change (FC) [1]: 16; fold change (FC) [2]: 3; Ka [6]: 12.4 µM; fold change (FC) [7]: 5; fold change (FC) [12]: 26.8
2 | inactive | inactive | inactive | 6% | inactive | inactive | inactive | inactive | 2 | inactive |  | inactive |  | inactive | inactive | inactive | inactive | inactive | inactive | inactive | O=C(NC(=S)NCCc1ccccc1)c1ccccc1 | Activity [18]: inactive; Activity [20]: inactive
3 | inactive | inactive | inactive | inactive | inactive | inactive | inactive | inactive | 3.3 | 5% | inactive | inactive | inactive | inactive | inactive | inactive | inactive | inactive | inactive | inactive | O=C(NC(=S)NCc1ccccc1)c1ccccc1 | 

More lines, now with the values behind:

Row | Compound | Activity [3] | inhibition [4] | inhibition [5] | inhibition [8] | Activity [9] | inhibition [10] | inhibition [11] | inhibition [13] | fold change (FC) [14] | inhibition [15] | Activity [17] | Activity [19] | Activity [21] | Activity [22] | Activity [23] | Activity [24] | Activity [25] | Activity [26] | Activity [27] | Activity [28] | also measured
4 | Cc1cc(=O)oc2cc(NC(=S)NC(=O)c3ccccc3)ccc12 | inactive |  |  |  | inactive |  |  |  | 2 |  |  |  |  |  |  |  |  |  |  |  | solubility [16]: Insoluble
5 | O=C(NC(=S)NCc1ccc(C(F)(F)F)cc1)c1ccccc1 | inactive | inactive | inactive | inactive | inactive | 7% | inactive | 5% | 1.2 | inactive | inactive | inactive | inactive | inactive | inactive | inactive |  |  |  |  | Activity [18]: inactive; Activity [20]: inactive
6 | O=C(NC(=S)NC1CCCCC1)c1ccccc1 | inactive | inactive | inactive | inactive | inactive | inactive | inactive | inactive | 5.6 | 5% | inactive | inactive | inactive | inactive | inactive | inactive | inactive | inactive | inactive | inactive | 
7 | O=C(NC(=S)Nc1ccccc1)c1ccccc1F | inactive | inactive | inactive | inactive | inactive | inactive | inactive | inactive | 3.5 | 5% | inactive | inactive | inactive | inactive | inactive | inactive | inactive | inactive | inactive | inactive | 
